13 compounds from US9850283B2, “Macrocyclic inhibitors of the PD-1/PD-L1 and CD80(B7-1)/PD-L1 protein/protein interactions” (BRISTOL-MYERS SQUIBB COMPANY, priority 2013, dated 2017) can be followed below.

Where two headings read alike, the source gives them in different places. Positions of bridges follow the written chain, without caps; N, C: chain ends. Non-standard residues stand in square brackets, D forms with d. Residues, ends and D or L forms follow the SMILES beside them. ξ: configuration not given here. *: point of attachment. Tyr(3,5-Br2) = N[C@@H](Cc1cc(Br)c(O)c(Br)c1)C(=O)O; Pro(4R-Bn) = O=C(O)[C@@H]1C[C@@H](Cc2ccccc2)CN1; Bta = N[C@@H](Cc1csc2ccccc12)C(=O)O; Hyp = O=C(O)[C@@H]1C[C@@H](O)CN1; NMeF = CN[C@@H](Cc1ccccc1)C(=O)O; NMeNle = CCCC[C@H](NC)C(=O)O; NMeM = CN[C@@H](CCSC)C(=O)O; hSer = N[C@@H](CCO)C(=O)O; NMeA = CN[C@@H](C)C(=O)O; Dab = NCC[C@H](N)C(=O)O; Dap = NC[C@H](N)C(=O)O; ξhCys = NC(CCS)C(=O)O; Bz = O=C(c1ccccc1)*; ξC = NC(CS)C(=O)O; Sar = CNCC(=O)O Where only a bound is given, the exact number is not on record here.

Assay [1] concerns the target T1, LK35.2-hPD-L1 cells / PE-labeled PD-1-Ig (Homo sapiens, UniProt Q9NZQ7).
T1 construct: expressed in transfected cells; host or cells: LK35.2 mouse B cell line
Description: LK35.2-hPD-L1 cell binding high-content screening assay. The format is cell-based. As to conditions: cluster symbol. In a few lines:
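Readout: high-content imaging of PE-PD-1-Ig bound to LK35.2-hPD-L1 cells. Cells plated overnight (RPMI/10% FCS); compound + 1 nM PE-PD-1-Ig, 1 h, 37 °C; 3× dPBS wash before imaging.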

For the next assay, the target named is T2, Human PD-L1/PD-1 (Homo sapiens, UniProt Q9NZQ7).
T2 construct: made in house; host or cells: HEK293T
T2 sequence (Q9NZQ7 with tags, fused parts or gaps): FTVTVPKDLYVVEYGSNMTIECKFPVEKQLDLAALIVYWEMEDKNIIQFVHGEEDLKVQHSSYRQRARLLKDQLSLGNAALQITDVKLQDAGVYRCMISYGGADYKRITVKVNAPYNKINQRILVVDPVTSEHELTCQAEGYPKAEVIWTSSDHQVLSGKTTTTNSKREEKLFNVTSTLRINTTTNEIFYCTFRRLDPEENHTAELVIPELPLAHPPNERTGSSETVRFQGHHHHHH
Description: HTRF PD-1-Ig/PD-L1-His binding assay (human PD-L1). As to conditions: cluster symbol. Summed up: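 Interaction of Fc-tagged soluble PD-1 with His-tagged soluble PD-L1 is monitored by time-resolved FRET. Donor is europium cryptate anti-Ig (1 nM final) and acceptor is APC anti-His (20 nM final). Assay buffer is dPBS with 0.1% BSA and 0.05% Tween-20.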

Setting [2] is: cell line of CBA not given (LK35.2-hPD-L1 or 293T-hPD-L1), read-out: CBA IC50 cluster.
[3] abbreviates: cell binding assay, cell line not given, read-out: CBA IC50 cluster.

T1 sequence (Q9NZQ7 19-290): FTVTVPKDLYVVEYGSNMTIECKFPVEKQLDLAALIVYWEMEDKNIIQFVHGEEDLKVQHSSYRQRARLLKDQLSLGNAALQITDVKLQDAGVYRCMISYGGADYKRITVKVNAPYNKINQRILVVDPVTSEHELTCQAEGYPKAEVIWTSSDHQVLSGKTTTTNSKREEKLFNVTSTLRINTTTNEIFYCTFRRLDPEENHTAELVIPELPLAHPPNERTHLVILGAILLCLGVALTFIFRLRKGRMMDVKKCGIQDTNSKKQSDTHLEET

For `CCCC[C@H]1C(=O)N(C)CC(=O)N[C@@H](CC(=O)O)C(=O)N[C@@H](CCC(=O)O)C(=O)N(C)[C@@H](Cc2ccccc2)C(=O)N[C@@H](Cc2ccc(O)cc2)C(=O)N(C)CC(=O)N[C@@H](Cc2c[nH]c3ccccc23)C(=O)N[C@@H](Cc2ccc(O)cc2)C(=O)N[C@@H](CC(C)C)C(=O)N[C@H](C(=O)NCC(N)=O)CSCC(=O)N[C@@H](Cc2ccccc2)C(=O)N(C)[C@@H](Cc2ccccc2)C(=O)N1C` [Example 3150] (HELM PEPTIDE1{[O=C(C[*:3])[*:2]].F.[meF].[CCCC[C@@H](C(=O)[*:2])N(C)[*:1]].[Sar].D.E.[meF].Y.[Sar].W.Y.L.C.G.[am]}$PEPTIDE1,PEPTIDE1,1:R3-14:R3$$$V2.0), the IC50 in assay [1] (setting [2]) was over 0.0743 µM; on Human PD-L1/PD-1 (read-out: HTRF IC50 cluster) it was over 0.0305 µM.
Consider `CCCC[C@H]1C(=O)N(C)[C@@H](CCCC)C(=O)N[C@@H](CCCNC(=N)N)C(=O)N[C@H](C(=O)NCC(N)=O)CSCC(=O)N[C@@H](Cc2ccc(O)cc2)C(=O)N(C)[C@@H](C)C(=O)N[C@@H](CC(N)=O)C(=O)N2CCC[C@H]2C(=O)N[C@@H](CN)C(=O)N[C@@H](CCC(N)=O)C(=O)N2CCC[C@H]2C(=O)N[C@@H](Cc2c[nH]c3ccccc23)C(=O)N[C@@H](CO)C(=O)N[C@@H](Cc2c[nH]c3ccccc23)C(=O)N1C` [Example 6021] ({CH2CO}-Y[NMeA]NP[Dap]QPWSW[NMeNle][NMeNle]RCG-NH2; thioether N-14), for which the IC50 in assay [1] (setting [3]) is 0.000158 to 0.00471 µM; on Human PD-L1/PD-1 (read-out: HTRF IC50 cluster), 0.000385 to 0.00674 µM.
The like results for `CCCC[C@H]1C(=O)N(C)[C@@H](CCCC)C(=O)N[C@@H](CCCNC(=N)N)C(=O)N[C@H](C(=O)NCC(N)=O)CSCC(=O)N[C@@H](Cc2ccccc2)C(=O)N(C)[C@@H](C)C(=O)N[C@@H](CC(N)=O)C(=O)N2CCC[C@H]2C(=O)N[C@@H](Cc2cnc[nH]2)C(=O)N[C@@H](Cc2cnc[nH]2)C(=O)N(C)CC(=O)N[C@@H](Cc2c[nH]c3ccccc23)C(=O)N[C@@H](CO)C(=O)N[C@@H](Cc2c[nH]c3ccccc23)C(=O)N1C` [Example 6008] ({CH2CO}-F[NMeA]NPHH[Sar]WSW[NMeNle][NMeNle]RCG-NH2; thioether N-14) were, in that order, over 0.0743 µM and over 0.0305 µM.
The like results for `CCCC[C@H]1C(=O)N(C)[C@@H](CCCC)C(=O)N[C@@H](CCN)C(=O)N[C@H](C(=O)NCC(N)=O)CSCC(=O)N[C@@H](Cc2ccc(O)cc2)C(=O)N(C)[C@@H](C)C(=O)N[C@@H](CC(N)=O)C(=O)N2CCC[C@H]2C(=O)N[C@@H](Cc2c[nH]cn2)C(=O)N[C@@H](CCC(=O)O)C(=O)N2C[C@H](Cc3ccccc3)C[C@H]2C(=O)N[C@@H](Cc2c[nH]c3ccccc23)C(=O)N[C@@H](CCN)C(=O)N[C@@H](Cc2c[nH]c3ccccc23)C(=O)N1C` [Example 13007] ({CH2CO}-Y[NMeA]NPHE[Pro(4R-Bn)]W[Dab]W[NMeNle][NMeNle][Dab]CG-NH2; thioether N-14) were, in that order, 0.000158 to 0.00471 µM and 0.000385 to 0.00674 µM.
As to `CCCC[C@H]1C(=O)N(C)[C@@H](CCCC)C(=O)N[C@@H](CCCNC(=N)N)C(=O)N[C@H](C(=O)NCC(N)=O)CSCC(=O)N[C@@H](Cc2ccccc2)C(=O)N(C)[C@@H](C)C(=O)N[C@@H](CC(N)=O)C(=O)N2CCC[C@H]2C(=O)N[C@@H](Cc2c[nH]cn2)C(=O)N[C@@H](CC(C)C)C(=O)N[C@@H](CCNC(=O)c2ccccc2)C(=O)N[C@@H](Cc2c[nH]c3ccccc23)C(=O)N[C@@H](CO)C(=O)N[C@@H](Cc2c[nH]c3ccccc23)C(=O)N1C` [Example 1022] ({CH2CO}-F[NMeA]NPHL[Dab](Bz)WSW[NMeNle][NMeNle]RCG-NH2; thioether N-14), the IC50 in assay [1] (CBA IC50 cluster, cell line of CBA not given (LK35.2-hPD-L1 or 293T-hPD-L1)) is over 0.0743 µM; at Human PD-L1/PD-1 (HTRF IC50 cluster), over 0.0305 µM.
For `CCCC[C@H]1C(=O)N(C)[C@@H](CCCC)C(=O)N[C@@H](CCCNC(=N)N)C(=O)NC(C(=O)NCC(N)=O)CSCC(=O)N[C@@H](Cc2ccc(O)cc2)C(=O)N(C)[C@@H](C)C(=O)N[C@@H](CC(N)=O)C(=O)N2CCC[C@H]2C(=O)N[C@@H](Cc2cnc[nH]2)C(=O)N[C@@H](CC(C)C)C(=O)N2C[C@H](O)C[C@H]2C(=O)N[C@@H](Cc2c[nH]c3ccccc23)C(=O)N[C@@H](CCO)C(=O)N[C@@H](Cc2csc3ccccc23)C(=O)N1C` (some centres unmarked) [Example 9048] ({CH2CO}-Y[NMeA]NPHL[Hyp]W[hSer][Bta][NMeNle][NMeNle]R[ξC]G-NH2; thioether N-14), the IC50 in assay [1] (setting [3]) fell in the range of 0.000158 to 0.00471 µM; on Human PD-L1/PD-1 (read-out: HTRF IC50 cluster), 0.000385 to 0.00674 µM.
The like results for `CCCC[C@H]1C(=O)N(C)[C@@H](COc2cccc(C)c2)C(=O)N[C@@H](CC(C)C)C(=O)N[C@H](C(=O)NCC(N)=O)CSCC(=O)N[C@@H](Cc2ccc(O)cc2)C(=O)N(C)[C@@H](C)C(=O)N[C@@H](CC(N)=O)C(=O)N2CCC[C@H]2C(=O)N[C@@H](CN)C(=O)N[C@@H](CC(C)C)C(=O)N2C[C@H](O)C[C@H]2C(=O)N[C@@H](Cc2c[nH]c3ccccc23)C(=O)N[C@@H](CCN)C(=O)N[C@@H](Cc2c[nH]c3ccccc23)C(=O)N1C` [Example 6029] were, in that order, 0.00478 to 0.0729 µM and 0.000385 to 0.00674 µM.
The like results for `CCCC[C@H]1C(=O)N(C)[C@@H](CCCC)C(=O)N[C@@H](CCCNC(=N)N)C(=O)NC(C(=O)NCC(N)=O)CCSCC(=O)N[C@@H](Cc2ccc(O)cc2)C(=O)N(C)[C@@H](C)C(=O)N[C@@H](CC(N)=O)C(=O)N2CCC[C@H]2C(=O)N[C@@H](Cc2cnc[nH]2)C(=O)N[C@@H](CC(C)C)C(=O)N2CCC[C@H]2C(=O)N[C@@H](Cc2c[nH]c3ccccc23)C(=O)N[C@@H](CO)C(=O)N[C@@H](Cc2c[nH]c3ccccc23)C(=O)N1C` (some centres unmarked) [Example 9019] ({CH2CO}-Y[NMeA]NPHLPWSW[NMeNle][NMeNle]R[ξhCys]G-NH2; thioether N-14) were, in that order, over 0.0743 µM and 0.00676 to 0.0303 µM.
On the same counts, the results for `CCCC[C@H]1C(=O)N[C@@H](CCCNC(=N)N)C(=O)NC(C(=O)NCC(N)=O)CSCC(=O)N[C@@H](Cc2ccc(O)cc2)C(=O)N(C)[C@@H](C)C(=O)N[C@@H](CC(N)=O)C(=O)N2CCC[C@H]2C(=O)N[C@@H](Cc2cnc[nH]2)C(=O)N[C@@H](CO)C(=O)N2C[C@H](O)C[C@H]2C(=O)N[C@@H](Cc2c[nH]c3ccccc23)C(=O)N[C@@H](CO)C(=O)N[C@@H](Cc2c[nH]c3ccccc23)C(=O)N(C)[C@@H](CCSC)C(=O)N1C` (some centres unmarked) [Example 9113] ({CH2CO}-Y[NMeA]NPHS[Hyp]WSW[NMeM][NMeNle]R[ξC]G-NH2; thioether N-14) are 0.00478 to 0.0729 µM and 0.00676 to 0.0303 µM.
For `CCCC[C@H]1C(=O)N(C)[C@@H](CCCC)C(=O)N[C@@H](CCCNC(=N)N)C(=O)N[C@H](C(=O)NCC(N)=O)CSCC(=O)N[C@@H](Cc2ccccc2)C(=O)N(C)[C@@H](C)C(=O)N[C@H](C)C(=O)N2CCC[C@H]2C(=O)N[C@@H](Cc2cnc[nH]2)C(=O)N[C@@H](CC(C)C)C(=O)N(C)CC(=O)N[C@@H](Cc2c[nH]c3ccccc23)C(=O)N[C@@H](CO)C(=O)N[C@@H](Cc2c[nH]c3ccccc23)C(=O)N1C` [Example 1081] ({CH2CO}-F[NMeA][dA]PHL[Sar]WSW[NMeNle][NMeNle]RCG-NH2; thioether N-14), the half-inhibitory concentration (IC50) in assay [1] (setting [2]) was over 0.0743 µM; at Human PD-L1/PD-1 (read-out: HTRF IC50 cluster), over 0.0305 µM.
On the same counts, the results for `CCCC[C@H]1C(=O)N(C)[C@@H](CCCC)C(=O)N[C@@H](CCCNC(=N)N)C(=O)N[C@H](C(=O)NCC(N)=O)CSCC(=O)N[C@@H](Cc2ccccc2)C(=O)N(C)[C@@H](C)C(=O)N[C@@H](CC(N)=O)C(=O)N2CCC[C@H]2C(=O)N[C@@H](Cc2cnc[nH]2)C(=O)N[C@@H](CC(C)C)C(=O)NC(C)(C)C(=O)N[C@@H](Cc2c[nH]c3ccccc23)C(=O)N[C@@H](CO)C(=O)N[C@@H](Cc2c[nH]c3ccccc23)C(=O)N1C` [Example 1110] are over 0.0743 µM and over 0.0305 µM.
For `CCCC[C@H]1C(=O)N(C)CC(=O)N[C@@H](CC(=O)O)C(=O)N[C@@H](C(C)C)C(=O)N(C)[C@@H](Cc2ccccc2)C(=O)N[C@@H](Cc2ccc(O)cc2)C(=O)N(C)CC(=O)N[C@@H](Cc2c[nH]c3ccccc23)C(=O)N[C@@H](Cc2ccc(O)cc2)C(=O)N[C@@H](CCC(=O)O)C(=O)N[C@H](C(=O)NCC(N)=O)CSCC(=O)N[C@@H](Cc2ccccc2)C(=O)N(C)[C@@H](Cc2ccccc2)C(=O)N1C` [Example 3509] (HELM PEPTIDE1{[O=C(C[*:3])[*:2]].F.[meF].[CCCC[C@@H](C(=O)[*:2])N(C)[*:1]].[Sar].D.V.[meF].Y.[Sar].W.Y.E.C.G.[am]}$PEPTIDE1,PEPTIDE1,1:R3-14:R3$$$V2.0), the IC50 in assay [1] (setting [3]) is over 0.0743 µM; at Human PD-L1/PD-1 (read-out: HTRF IC50 cluster), 0.00676 to 0.0303 µM.
In the case of `CCCC[C@H]1C(=O)N(C)CC(=O)N[C@@H](CC(=O)O)C(=O)N[C@@H](C(C)C)C(=O)N(C)[C@@H](Cc2ccccc2)C(=O)N[C@@H](Cc2ccc(O)cc2)C(=O)N(C)CC(=O)N[C@@H](Cc2c[nH]c3ccccc23)C(=O)N[C@@H](Cc2cc(Br)c(O)c(Br)c2)C(=O)N[C@@H](CC(C)C)C(=O)N[C@H](C(=O)NCC(N)=O)CSCC(=O)N[C@@H](Cc2ccccc2)C(=O)N(C)[C@@H](Cc2ccccc2)C(=O)N1C` [Example 3112] ({CH2CO}-F[NMeF][NMeNle][Sar]DV[NMeF]Y[Sar]W[Tyr(3,5-Br2)]LCG-NH2; thioether N-13), the IC50 in assay [1] (setting [2]) is over 0.0743 µM; at Human PD-L1/PD-1 (read-out: HTRF IC50 cluster), over 0.0305 µM.
